From paper PMC5218480 (PLoS ONE, 2017)

System: MV-4-11 cells
Test: Gene expression microarray analysis (Affymetrix PrimeView) and GSEA
Format: cell-based, human
Parameters: RFU PODN (11730768_x_at) / Fold change /veh PODN (11730768_x_at) / RFU LINC00158 (11744669_a_at) / Fold change /veh LINC00158 (11744669_a_at) / RFU DUSP10 (11751237_a_at) / Fold change /veh DUSP10 (11751237_a_at) / RFU ID3 (11757404_x_at) / Fold change /veh ID3 (11757404_x_at) / RFU PLEKHG5 (11737974_s_at) / Fold change /veh PLEKHG5 (11737974_s_at) / RFU LRRC4B (11730491_at) / Fold change /veh LRRC4B (11730491_at) / RFU GIMAP4 (11747438_a_at) / Fold change /veh GIMAP4 (11747438_a_at) / RFU KRT8 (11758183_x_at) / Fold change /veh KRT8 (11758183_x_at) / RFU CNN1 (11734310_a_at) / Fold change /veh CNN1 (11734310_a_at) / RFU VPS37D (11726825_at) / Fold change /veh VPS37D (11726825_at) / RFU C10orf10 (11716522_x_at) / Fold change /veh C10orf10 (11716522_x_at) / RFU KIR2DL2 /// KIR2DL4 /// KIR2DL5A /// KIR2DL5B /// KIR2DS1 /// KIR2DS2 /// KIR2DS3 /// KIR2DS4 /// KIR3DL3 /// KIR3DL3 /// KIR3DS1 (11738374_at) / Fold change /veh KIR2DL2 /// KIR2DL4 /// KIR2DL5A /// KIR2DL5B /// KIR2DS1 /// KIR2DS2 /// KIR2DS3 /// KIR2DS4 /// KIR3DL3 /// KIR3DL3 /// KIR3DS1 (11738374_at) / RFU C1QL1 (11718748_at) / Fold change /veh C1QL1 (11718748_at) / RFU TMPRSS4 (11747572_a_at) / Fold change /veh TMPRSS4 (11747572_a_at) / RFU HAMP (11756126_x_at) / Fold change /veh HAMP (11756126_x_at) / RFU RNFT2 (11725882_a_at) / Fold change /veh RNFT2 (11725882_a_at) / RFU NR4A2 (11747474_a_at) / Fold change /veh NR4A2 (11747474_a_at) / RFU ABCC12 (11746883_a_at) / Fold change /veh ABCC12 (11746883_a_at) / RFU TMEM136 (11760407_x_at) / Fold change /veh TMEM136 (11760407_x_at) / RFU CLDN22 /// WWC2 (11732394_at) / Fold change /veh CLDN22 /// WWC2 (11732394_at) / RFU HLA-DPB1 (11760878_x_at) / Fold change /veh HLA-DPB1 (11760878_x_at) / RFU SPINT1 (11716480_a_at) / Fold change /veh SPINT1 (11716480_a_at) / RFU GAP43 (11754022_s_at) / Fold change /veh GAP43 (11754022_s_at) / RFU A4GNT (11735810_at) / Fold change /veh A4GNT (11735810_at) / RFU PRB3 (11715151_x_at) / Fold change /veh PRB3 (11715151_x_at) / RFU TUBB4B (11761932_at) / Fold change /veh TUBB4B (11761932_at) / RFU CAPN14 (11732068_a_at) / Fold change /veh CAPN14 (11732068_a_at) / RFU TMCC2 (11721928_a_at) / Fold change /veh TMCC2 (11721928_a_at) / RFU IRGQ (11745062_a_at) / Fold change /veh IRGQ (11745062_a_at) / RFU FAM174B (11720279_a_at) / Fold change /veh FAM174B (11720279_a_at) / RFU TMPRSS4 (11748680_a_at) / Fold change /veh TMPRSS4 (11748680_a_at) / RFU FAM212B (11763350_a_at) / Fold change /veh FAM212B (11763350_a_at) / RFU PLEKHG5 (11743358_a_at) / Fold change /veh PLEKHG5 (11743358_a_at) / RFU ZSCAN30 (11745921_a_at) / Fold change /veh ZSCAN30 (11745921_a_at) / RFU CMKLR1 (11741424_a_at) / Fold change /veh CMKLR1 (11741424_a_at) / RFU LOC101060620 /// MAPK8IP1 (11723275_at) / Fold change /veh LOC101060620 /// MAPK8IP1 (11723275_at) / RFU SPTSSB (11747773_x_at) / Fold change /veh SPTSSB (11747773_x_at) / RFU PRSS12 (11739890_at) / Fold change /veh PRSS12 (11739890_at) / RFU BIN1 (11741810_x_at) / Fold change /veh BIN1 (11741810_x_at) / RFU WNT11 (11732464_a_at) / Fold change /veh WNT11 (11732464_a_at) / RFU C10orf10 (11716521_a_at) / Fold change /veh C10orf10 (11716521_a_at) / RFU C5orf56 (11738089_at) / Fold change /veh C5orf56 (11738089_at) / RFU CYB561 (11721691_x_at) / Fold change /veh CYB561 (11721691_x_at) / RFU ANKRD19P (11752326_a_at) / Fold change /veh ANKRD19P (11752326_a_at) / RFU OR2T12 /// OR2T33 /// OR2T8 (11738714_s_at) / Fold change /veh OR2T12 /// OR2T33 /// OR2T8 (11738714_s_at) / RFU VCAN (11748164_a_at) / Fold change /veh VCAN (11748164_a_at) / RFU JSRP1 (11732532_at) / Fold change /veh JSRP1 (11732532_at) / RFU KRTAP10-11 (11738290_x_at) / Fold change /veh KRTAP10-11 (11738290_x_at) / RFU MYO3A (11730013_a_at) / Fold change /veh MYO3A (11730013_a_at) / RFU EBF3 (11725865_a_at) / Fold change /veh EBF3 (11725865_a_at) / RFU CAMK2N1 (11719241_x_at) / Fold change /veh CAMK2N1 (11719241_x_at) / RFU C5orf56 (11738088_a_at) / Fold change /veh C5orf56 (11738088_a_at) / RFU OLFML3 (11715873_a_at) / Fold change /veh OLFML3 (11715873_a_at) / RFU LOC100653217 /// NTM (11731650_a_at) / Fold change /veh LOC100653217 /// NTM (11731650_a_at) / RFU MAPK11 (11762145_a_at) / Fold change /veh MAPK11 (11762145_a_at) / RFU FIZ1 (11724087_x_at) / Fold change /veh FIZ1 (11724087_x_at) / RFU OASL (11726364_x_at) / Fold change /veh OASL (11726364_x_at) / RFU SOX15 (11748057_x_at) / Fold change /veh SOX15 (11748057_x_at) / RFU CD79A (11719716_a_at) / Fold change /veh CD79A (11719716_a_at) / RFU HIST1H1D (11736915_at) / Fold change /veh HIST1H1D (11736915_at) / RFU CASKIN2 (11723855_a_at) / Fold change /veh CASKIN2 (11723855_a_at) / RFU LOC730098 (11760151_x_at) / Fold change /veh LOC730098 (11760151_x_at) / RFU OR4N2 (11742367_at) / Fold change /veh OR4N2 (11742367_at) / RFU PRRT2 (11749266_a_at) / Fold change /veh PRRT2 (11749266_a_at) / RFU SNX32 (11753110_a_at) / Fold change /veh SNX32 (11753110_a_at) / RFU CDHR5 (11726645_a_at) / Fold change /veh CDHR5 (11726645_a_at) / RFU RCAN1 (11760418_a_at) / Fold change /veh RCAN1 (11760418_a_at) / RFU FAM167A (11723789_a_at) / Fold change /veh FAM167A (11723789_a_at) / RFU FAM26E (11764081_at) / Fold change /veh FAM26E (11764081_at) / RFU ISYNA1 (11749810_s_at) / Fold change /veh ISYNA1 (11749810_s_at) / RFU ACY1 (11761880_at) / Fold change /veh ACY1 (11761880_at) / RFU 11764098_at / Fold change /veh 11764098_at / RFU SAMD14 (11745864_x_at) / Fold change /veh SAMD14 (11745864_x_at) / RFU NPB (11741838_a_at) / Fold change /veh NPB (11741838_a_at) / RFU TMPRSS6 (11731388_a_at) / Fold change /veh TMPRSS6 (11731388_a_at) / RFU KRTAP10-2 (11738614_at) / Fold change /veh KRTAP10-2 (11738614_at) / RFU ARHGAP8 /// PRR5-ARHGAP8 (11727945_x_at) / Fold change /veh ARHGAP8 /// PRR5-ARHGAP8 (11727945_x_at) / RFU KRTAP5-7 /// NADSYN1 (11734609_at) / Fold change /veh KRTAP5-7 /// NADSYN1 (11734609_at) / RFU RASL12 (11751679_a_at) / Fold change /veh RASL12 (11751679_a_at) / RFU CDKN2B (11736163_a_at) / Fold change /veh CDKN2B (11736163_a_at) / RFU PRF1 (11729649_at) / Fold change /veh PRF1 (11729649_at) / RFU, ZNF638 /// ZNF638-IT1 / Fold change vs veh, ZNF638 /// ZNF638-IT1 / RFU, PANK3 / Fold change vs veh, PANK3 / RFU, SH3YL1 / Fold change vs veh, SH3YL1 / RFU, ZEB2 / Fold change vs veh, ZEB2 / RFU, NRIP1 / Fold change vs veh, NRIP1 / RFU, PTTG1IP / Fold change vs veh, PTTG1IP / RFU, CAPN2 / Fold change vs veh, CAPN2 / RFU, MED14 / Fold change vs veh, MED14 / RFU, SNORA58 / Fold change vs veh, SNORA58 / RFU, C1orf63 / Fold change vs veh, C1orf63 / RFU, LRRFIP1 / Fold change vs veh, LRRFIP1 / RFU, NDUFAF7 / Fold change vs veh, NDUFAF7 / RFU, SLC12A2 / Fold change vs veh, SLC12A2 / RFU, IBTK / Fold change vs veh, IBTK / RFU, ESF1 / Fold change vs veh, ESF1 / Fold change vs veh, TMEM50B / RFU, TAOK1 / Fold change vs veh, TAOK1 / RFU, ACBD3 / Fold change vs veh, ACBD3 / RFU, TMA16 / Fold change vs veh, TMA16 / RFU, RWDD3 / Fold change vs veh, RWDD3 / RFU, BCAT1 / Fold change vs veh, BCAT1 / RFU, EDEM3 / Fold change vs veh, EDEM3 / RFU, TMEM33 / Fold change vs veh, TMEM33 / RFU, WDR75 / Fold change vs veh, WDR75 / RFU, AHCTF1 / Fold change vs veh, AHCTF1 / RFU, TFRC / Fold change vs veh, TFRC / RFU, ZDHHC17 / Fold change vs veh, ZDHHC17 / RFU, NOM1 / Fold change vs veh, NOM1 / RFU, ARL8B / Fold change vs veh, ARL8B / RFU, ZBTB11 / Fold change vs veh, ZBTB11 / RFU, TAMM41 / Fold change vs veh, TAMM41 / RFU, KIAA1704 /// LOC100996395 / Fold change vs veh, KIAA1704 /// LOC100996395 / RFU, ING1 / Fold change vs veh, ING1 / RFU, TRMT61B / Fold change vs veh, TRMT61B / RFU, FUBP3 / Fold change vs veh, FUBP3 / RFU, TP53 / Fold change vs veh, TP53 / RFU, TNKS2 / Fold change vs veh, TNKS2 / RFU, ZFP14 / Fold change vs veh, ZFP14 / RFU, ACTR2 / Fold change vs veh, ACTR2 / RFU, PPP3R1 / Fold change vs veh, PPP3R1 / RFU, PIK3R1 / Fold change vs veh, PIK3R1 / RFU, HNRNPA1 / Fold change vs veh, HNRNPA1 / RFU, RNF170 / Fold change vs veh, RNF170 / RFU, ZNF28 / Fold change vs veh, ZNF28 / RFU, RNGTT / Fold change vs veh, RNGTT / RFU, OGT / Fold change vs veh, OGT / RFU, BRD1 / Fold change vs veh, BRD1 / RFU, MARS / Fold change vs veh, MARS / RFU, ZNF655 / Fold change vs veh, ZNF655 / RFU, FAHD1 / Fold change vs veh, FAHD1 / RFU, BDP1 / Fold change vs veh, BDP1 / RFU, LRRCC1 / Fold change vs veh, LRRCC1 / RFU, ARID1A / Fold change vs veh, ARID1A / RFU, ZNF146 / Fold change vs veh, ZNF146 / RFU, ZNF330 / Fold change vs veh, ZNF330 / RFU, GPN3 / Fold change vs veh, GPN3 / RFU, C9orf123 / Fold change vs veh, C9orf123 / RFU, N4BP2L2 / Fold change vs veh, N4BP2L2 / RFU, ARFIP1 / Fold change vs veh, ARFIP1 / RFU, FAM179B / Fold change vs veh, FAM179B / RFU, BCL10 / Fold change vs veh, BCL10 / RFU, UHRF1BP1L / Fold change vs veh, UHRF1BP1L / RFU, BET1 / Fold change vs veh, BET1 / RFU, CNOT2 / Fold change vs veh, CNOT2 / RFU, ZNF268 / Fold change vs veh, ZNF268 / Fold change vs veh, ZNF507 / RFU, DGCR2 / Fold change vs veh, DGCR2 / RFU, WDSUB1 / Fold change vs veh, WDSUB1 / Fold change vs veh, HSP90B1 /// MIR3652 / RFU, ADSS / Fold change vs veh, ADSS / RFU, GK / Fold change vs veh, GK / RFU, ZNF148 / Fold change vs veh, ZNF148 / RFU, TAF9 / Fold change vs veh, TAF9 / RFU, SLC1A5 / Fold change vs veh, SLC1A5 / RFU, SLMO2 / Fold change vs veh, SLMO2 / RFU, ABCC4 / Fold change vs veh, ABCC4 / RFU, LOC101060439 /// RAP1B / Fold change vs veh, LOC101060439 /// RAP1B / RFU, RFX7 / Fold change vs veh, RFX7 / RFU, GTPBP10 / Fold change vs veh, GTPBP10 / RFU, CNEP1R1 / Fold change vs veh, CNEP1R1 / RFU, BIVM-ERCC5 /// ERCC5 / Fold change vs veh, BIVM-ERCC5 /// ERCC5 / RFU, ILF3 / Fold change vs veh, ILF3 / RFU 11762660_at / Fold change /veh 11762660_at / RFU VCAN (11757783_s_at) / Fold change /veh VCAN (11757783_s_at) / RFU DDX43 (11728927_at) / Fold change /veh DDX43 (11728927_at) / RFU KRT8 (11758188_x_at) / Fold change /veh KRT8 (11758188_x_at) / RFU NKD1 (11759106_at) / Fold change /veh NKD1 (11759106_at) / RFU SRD5A1 (11742802_a_at) / Fold change /veh SRD5A1 (11742802_a_at) / RFU TPSAB1 /// TPSB2 (11721975_s_at) / Fold change /veh TPSAB1 /// TPSB2 (11721975_s_at) / RFU GSTM3 (11746129_a_at) / Fold change /veh GSTM3 (11746129_a_at) / RFU IL23R (11737362_x_at) / Fold change /veh IL23R (11737362_x_at) / RFU TMEM51 (11727254_a_at) / Fold change /veh TMEM51 (11727254_a_at) / RFU PIWIL2 (11732686_x_at) / Fold change /veh PIWIL2 (11732686_x_at) / RFU ORM1 (11744905_x_at) / Fold change /veh ORM1 (11744905_x_at) / RFU CCDC152 (11743942_at) / Fold change /veh CCDC152 (11743942_at) / RFU ECM1 (11717891_a_at) / Fold change /veh ECM1 (11717891_a_at) / RFU IL23R (11748794_a_at) / Fold change /veh IL23R (11748794_a_at) / RFU TNFAIP8L3 (11732012_x_at) / Fold change /veh TNFAIP8L3 (11732012_x_at) / RFU MBOAT4 (11741988_at) / Fold change /veh MBOAT4 (11741988_at) / RFU 11764193_at / Fold change /veh 11764193_at / RFU TMEM53 (11763286_at) / Fold change /veh TMEM53 (11763286_at) / RFU MAGEB2 (11727129_at) / Fold change /veh MAGEB2 (11727129_at) / RFU TMEM200A (11744735_a_at) / Fold change /veh TMEM200A (11744735_a_at) / RFU CCDC152 (11751479_a_at) / Fold change /veh CCDC152 (11751479_a_at) / RFU FAM211A (11726209_a_at) / Fold change /veh FAM211A (11726209_a_at) / RFU RGS16 (11746705_a_at) / Fold change /veh RGS16 (11746705_a_at) / RFU VCAN (11755009_s_at) / Fold change /veh VCAN (11755009_s_at) / RFU RHOB (11743442_s_at) / Fold change /veh RHOB (11743442_s_at) / RFU RGS16 (11720943_a_at) / Fold change /veh RGS16 (11720943_a_at) / RFU RGS16 (11720944_at) / Fold change /veh RGS16 (11720944_at) / RFU, VPS4B / Fold change vs veh, VPS4B / RFU, CREB1 / Fold change vs veh, CREB1 / RFU, DNAJC13 / Fold change vs veh, DNAJC13 / RFU, GNAQ / Fold change vs veh, GNAQ / RFU, CDK5R1 / Fold change vs veh, CDK5R1 / RFU, ZRANB3 / Fold change vs veh, ZRANB3 / RFU, CUL4A / Fold change vs veh, CUL4A / RFU, CCNY / Fold change vs veh, CCNY / RFU, UFL1 / Fold change vs veh, UFL1 / RFU, COG3 / Fold change vs veh, COG3 / RFU, DIAPH2 / Fold change vs veh, DIAPH2 / RFU, SKA2 / Fold change vs veh, SKA2 / RFU, AFF3 / Fold change vs veh, AFF3 / RFU, LMF1 / Fold change vs veh, LMF1 / RFU, IPO11 / Fold change vs veh, IPO11 / RFU, DFFB / Fold change vs veh, DFFB / RFU, FOXP1 / Fold change vs veh, FOXP1 / RFU, CARD8 / Fold change vs veh, CARD8 / RFU, STRN3 / Fold change vs veh, STRN3 / RFU, ADK / Fold change vs veh, ADK / RFU, RASSF2 / Fold change vs veh, RASSF2 / RFU, WIPF1 / Fold change vs veh, WIPF1 / RFU, LARP1B / Fold change vs veh, LARP1B / RFU, RASA1 / Fold change vs veh, RASA1 / RFU, RB1 / Fold change vs veh, RB1 / RFU, PPFIA1 / Fold change vs veh, PPFIA1 / RFU, MAT2A / Fold change vs veh, MAT2A / RFU, CCT5 / Fold change vs veh, CCT5 / RFU, WDR92 / Fold change vs veh, WDR92 / RFU, CUX1 / Fold change vs veh, CUX1 / RFU, TTC7A / Fold change vs veh, TTC7A / RFU, TMEM135 / Fold change vs veh, TMEM135 / RFU, DEPTOR / Fold change vs veh, DEPTOR / RFU, CPM / Fold change vs veh, CPM / RFU, DNAJB6 / Fold change vs veh, DNAJB6 / RFU, CACNA2D3 / Fold change vs veh, CACNA2D3 / RFU, DTX4 / Fold change vs veh, DTX4 / RFU, TFCP2 / Fold change vs veh, TFCP2 / RFU, GMCL1 /// GMCL1P1 / Fold change vs veh, GMCL1 /// GMCL1P1 / RFU, AEBP2 / Fold change vs veh, AEBP2 / RFU, SNHG1 /// SNORD22 /// SNORD25 /// SNORD26 /// SNORD27 /// SNORD28 /// SNORD29 /// SNORD31 / Fold change vs veh, SNHG1 /// SNORD22 /// SNORD25 /// SNORD26 /// SNORD27 /// SNORD28 /// SNORD29 /// SNORD31 / Fold change (Aza/veh), C12orf56 (ProbeSet 11735607_a_at) / Fold change (ACY-1035/veh), C12orf56 (ProbeSet 11735607_a_at) / Fold change (Aza/veh), FGFR1OP (ProbeSet 11751329_s_at) / Fold change (ACY-1035/veh), FGFR1OP (ProbeSet 11751329_s_at) / Fold change (Aza/veh), VPS36 (ProbeSet 11739960_a_at) / Fold change (ACY-1035/veh), VPS36 (ProbeSet 11739960_a_at) / RFU SYPL1 (11715823_x_at) / Fold change /veh SYPL1 (11715823_x_at) / RFU IGFBP7 (11715501_s_at) / Fold change /veh IGFBP7 (11715501_s_at) / RFU REEP3 (11722064_at) / Fold change /veh REEP3 (11722064_at) / RFU IGLL1 (11728026_x_at) / Fold change /veh IGLL1 (11728026_x_at): dose or concentration left out as unconfirmed
Conditions: ProbeSet 11723944_a_at; LIST B

For `Nc1ncn([C@@H]2O[C@H](CO)[C@@H](O)[C@H]2O)c(=O)n1` [azacitidine], the “Fold change vs veh, PTTG1IP” value was 0.86.
